Key:
[1] = tested on: GNAQ^G48V-expressing melan-a cells; assay: TPA-independent cell growth, CellTiter-glo 2.0; type: cell-based, mouse; details: 5 days, without TPA
Experimental: (§1) Data are expressed as the percentage relative light units (RLU) relative to that observed with vehicle. Error bars, s.e.m. from triplicate samples.
(§2) Cell Culture and in vitro analysis. Mutation dependent melan-a cells were generated by transducing cells with cDNAs in MSCV-PURO (retrovirus) and then selecting cells with puromycin (1 μg/ml) for two days. TPA (Sigma-Aldrich, St. Louis, Mo.) was then withdrawn from cultures. Cells with activating mutations (CYSLTR2^L129Q, GNAQ^G48V/R183Q/Q209L, KRAS^G12V, and BRAF^V600E) continued to proliferate over several passages (>2 weeks) and were then validated with qRT-PCR and immunoblots. Vector and WT controls were unable to maintain proliferation after a couple passages upon TPA withdrawal. All cells were cultured in media containing 10% FBS, L-glutamine ([…]), penicillin (100 U/ml), streptomycin (100 μg/ml). Melan-a cells provided by D. Bennett, St. George's Hospital, University of London (Johnson C P, et al., PLoS One. 12(6):1-17 (2017)), were cultured in RPMI supplemented with 200 nM TPA unless otherwise noted. HEK293T (from ATCC, Manassas, Va.) cells were cultured in DMEM-Q and UVM cells were cultured in RPMI. All cells tested negative for mycoplasma. Cell growth assays and YM dose response curves were assayed using CellTiter-glo 2.0 (Promega, Madison, Wis.) at given time points or after five days of incubation with YM and readout on a Glomax Luminometer (Promega, Madison, Wis.). IC50 values were calculated using Prism 7.0 software. Growth assays were compared to day 1 readings and dose response curves were compared to vehicle. Data shown is representative of at least three independent experiments with at least three technical replicates. Dose-response curves and growth assays were analyzed using GraphPad Prism 7.0 software.

[2] = tested on: BRAF^V600E-expressing melan-a cells; assay: TPA-independent cell growth, CellTiter-glo 2.0; type: cell-based, mouse; details: 5 days, without TPA
Experimental: as §1, §2

GNAQ^G48V = target: T1, GNAQ^G48V (Homo sapiens, UniProt P50148, G48V); assay: IP1 accumulation assay in transiently transfected HEK293T cells; type: cell-based; details: 24-hour treatment
T1 construct: host or cells: melan-a (immortalized mouse melanocytes), retroviral transduction with MSCV-Puro
T1 sequence (P50148 1-359 G48V): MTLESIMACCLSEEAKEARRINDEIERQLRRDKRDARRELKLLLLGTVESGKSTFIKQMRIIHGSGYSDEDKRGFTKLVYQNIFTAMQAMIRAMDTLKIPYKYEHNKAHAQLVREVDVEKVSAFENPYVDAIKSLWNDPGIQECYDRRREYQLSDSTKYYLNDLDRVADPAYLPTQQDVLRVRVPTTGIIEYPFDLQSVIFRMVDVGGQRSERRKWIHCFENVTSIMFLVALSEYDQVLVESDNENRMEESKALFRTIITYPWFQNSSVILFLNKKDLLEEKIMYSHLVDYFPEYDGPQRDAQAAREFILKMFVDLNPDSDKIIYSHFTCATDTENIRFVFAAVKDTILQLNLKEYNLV
Experimental: (§3) Cells were treated with YM at increasing doses for 24 hours. Error bars, s.e.m. from three biological replicates, each with three technical replicates.
Exogenous Gene Expression. HEK293T cells were transiently transfected to express vectors containing synthetic CYSLTR2 (Moore A R, et al., Nat Genet. 48(6):675 (2016)) and GNAQ. Genewiz was used to codon optimize these sequences for expression in mammalian cells. The human GNAQ α-subunit plasmids encoding for GNAQ mutants Q209L, R183Q and G48V were generated by Quick Change (Agilent Technologies, Santa Clara, Calif.) site-directed mutagenesis. HEK293T cells were transiently transfected with the plasmids encoding for GNAQ WT and mutants subcloned into pcDNA3.1(+) using Lipofectamine according to the manufacturer's instructions. Briefly, 9,000 HEK293T cells were transfected in low-volume 384-well plates with 11 ng of total DNA/well for 24 hours. Human cDNAs for WT CYSLTR2 and GNAQ were obtained from Origene and cloned into MSCV-Puro (Addgene plasmid #68469) for stable expression in melan-a cells via retroviral transduction with X-tremeGENE 9 (Sigma-Aldrich, St. Louis Mo.). Quikchange primers were used to introduce the various mutant constructs. All constructs were confirmed by sequencing. The primers used in the experiments described herein are provided below: […]
IP1 Accumulation Assay. IP1 concentrations in GNAQ-transfected HEK293T cells, GNAQ-expressing melan-a cells and uveal melanoma cells was measured using a competitive homogenous time resolved fluorescence (HTRF) assay (CisBio, Bedford, Mass.). Briefly, 9,000 transiently transfected-HEK293T cells, 5,000 melan-a cells and 5,000 uveal melanoma cells were seeded in low-volume 384-well plates in 7 μL media for 24 hours prior YM-254890 treatment. Cells were then treated with various concentrations of YM-254890 diluted in the appropriate media at 37° C. for 3 hours or 24 hours. […] Following incubation, cells were lysed by adding 3 μL/well of d2-labeled IP1 analogue as the fluorescence acceptor and the Terbium cryptate-labeled anti-IP1 mAb as the fluorescence donor, diluted in the kit-supplied lysis buffer. The plates were incubated overnight at RT and time-resolved fluorescence signals were read using the BioTek Synergy NEO plate reader (BioTek Instruments, Winooski, Vt.) at 620 nm and […]. Results were calculated as a 665 nm/620 nm signal ratio, and IP1 concentrations were interpolated from a standard curve prepared using the supplied IP1 calibrator. […] Dose-response curves and bar graphs were analyzed using GraphPad Prism 7.0 software. […]

CYSLTR2^L129Q = assay: as above; type: cell-based, human; details: 24-hour treatment
Experimental: as §3
Exogenous Gene Expression. HEK293T cells were transiently transfected to express vectors containing synthetic CYSLTR2 (Moore A R, et al., Nat Genet. 48(6):675 (2016)) and GNAQ. Genewiz was used to codon optimize these sequences for expression in mammalian cells. The human GNAQ α-subunit plasmids encoding for GNAQ mutants Q209L, R183Q and G48V were generated by Quick Change (Agilent Technologies, Santa Clara, Calif.) site-directed mutagenesis. […]
IP1 Accumulation Assay. IP1 concentrations in GNAQ-transfected HEK293T cells, GNAQ-expressing melan-a cells and uveal melanoma cells was measured using a competitive homogenous time resolved fluorescence (HTRF) assay (CisBio, Bedford, Mass.). […] Following incubation, cells were lysed by adding 3 μL/well of d2-labeled IP1 analogue as the fluorescence acceptor and the Terbium cryptate-labeled anti-IP1 mAb as the fluorescence donor, diluted in the kit-supplied lysis buffer. The plates were incubated overnight at RT and time-resolved fluorescence signals were read using the BioTek Synergy NEO plate reader (BioTek Instruments, Winooski, Vt.) at 620 nm and 655 nm. […] Dose-response curves and bar graphs were analyzed using GraphPad Prism 7.0 software. […]

For YM-254890, the “sensitivity of TPA-independent cell growth to YM” value [1] was “sub-nanomolar sensitivity”, the “sensitivity of TPA-independent cell growth to YM” value [2] was “completely resistant” and the “potency of inhibition of IP1 accumulation” value (GNAQ^G48V) was “subnanomolar potency”. The “potency of inhibition of IP1 accumulation” value (CYSLTR2^L129Q) was “subnanomolar potency”.
